# “Also recorded” adds a separate entry of the source. Where two headings read alike, the source gives them in different places.
# Key:
# [1] = test system: small intestinal polyps and colon tumors of Apc Min/+ mice; conditions: for intestinal tumor inhibition: high-dose (700 ppm)
# Protocol: Male Apc^Min/+ (C57BL/6J) and female wild-type littermate mice were initially purchased from The Jackson Laboratory (Bar Harbor, Me.) as founders, and our own breeding colony was established in OUHSC rodent barrier facility and genotyped according to vendor's instructions. All mice were housed 3 per cage in ventilated cages under standardized conditions (21° C., 60% relative humidity, 12 h light/12 h dark cycle, 20 air changes/hr). All mice were allowed ad libitum access to the respective diets and automated tap water purified by reverse osmosis.
# All diet ingredients for the semi-purified diets were purchased from Bioserve (Frenchtown, N.J.) and stored at 4° C. before diet preparation. Diets were based on the modified American Institute of Nutrition (AIN)-76A diet. […] Both control and experimental diets were prepared weekly and stored in a cold room. Agent content in the experimental diets was determined periodically in multiple samples taken from the top, middle, and bottom portions of individual diet preparations to verify uniform distribution.
# Genotyped Male and female Apc^Min/+ mice were used in the efficacy study. Five week old mice were distributed so that average body weights in each group were equal (10/9 Apc^Min/+ mice in each group) and were fed with AIN-76A diet for one week. […] Body weight, food, and fluid consumption were monitored weekly for signs of weight loss or lethargy that might indicate intestinal obstruction or anemia. Mice were routinely checked for any abnormalities. After 12 weeks, all mice were euthanized by CO2 asphyxiation, blood was collected immediately by heart puncture, and serum was separated by centrifugation and stored at −80° C. until further analysis. […] After necropsy, the entire intestinal tract was harvested, flushed with 0.9% NaCl and opened longitudinally from the esophagus to the distal rectum. The tissue was flattened on filter paper to expose the tumors and briefly frozen on dry ice to aid visual scoring of tumors. The number, location, and size of visible tumors in the entire intestine were determined under a dissection microscope (×5). All tumors were scored and subdivided by location (duodenal, jejunal and ileum and colon) and size (>2 mm, 1-2 or <1 mm in diameter). This procedure was completed by two individuals who were blinded to the experimental group and the genetic status of the mice. Colonic and other small intestinal tumors that required further histopathologic evaluation to identify adenoma, adenocarcinoma, and enlarged lymph nodes were fixed in 10% neutral-buffered formalin, embedded in paraffin blocks, and processed by routine H&E staining.
# All results are expressed as mean±SE and were analyzed by Student's t test. Differences were considered significant at the P<0.05 level.
# [2] = stored in food cups for seven days
# Protocol: Then aliquots of samples taken from the top, middle and bottom portions of the diets were analyzed for agents homogeneity of the experimental diets. […] Based on this information, frequency of preparation of experimental diets was once a week, and food cups were changed 3 times a week.
# [3] = test system: AOM plus DSS induced colonic inflammation; conditions: for AOM-DSS-Induced Inflammation Score: two weeks, male F344 rats
# Description: Inflammation Score based on histological observations using the modified Sydney classification for colonic inflammation:
# Following score criteria has been applied: • i. Score 0: No inflammation or changes in the colonic crypt morphology • ii. Score 1. Presence of neutrophil infiltration and chronic lymphocytic inflammation. • iii. Score 2. Surface epithelial damage, mild atrophy, lymphoid follicles • iv. Score 3: Severe atrophy and intestinal metaplasia.
# [4] = for Major Organ Toxicity / Ulceration (Grade) Colon / Ulceration (Grade) Small Intestine / Ulceration (Grade) Stomach / Liver enzymes ALKP / Liver enzymes ALT / Liver enzymes AST / Liver enzymes LDH: male C57 mice; for Liver enzymes ALKP / Liver enzymes ALT / Liver enzymes AST / Liver enzymes LDH: Mean ± SEM
# Protocol: Body weights and symptoms of toxicity were recorded twice weekly for 6 weeks. […] All organs were examined grossly for any abnormalities upon necropsy. Livers, kidney, stomach, intestinal tract, and blood were obtained from the animals and analyzed for Liver enzyme profile, GI ulceration, and levels of test agents.
# All animals found dead will be necropsied to confirm that the most likely cause of death was due to intestinal ulcerations.
# [5] = test system: colonic aberrant crypt foci (ACF); conditions: male F344 rats
# Protocol: Male F344 rats at 8 weeks of age treated with AOM (15 mg/Kg BW) and exposed to 2% DSS for three days. […] Further, the inflammation was scored by following below criteria:
# ACF form before colorectal polyps and are an indicator of the potential for cancer.
# [6] = test system: COX-1/2; conditions: ex vivo colon tumor homogenate
# Protocol: (§1) Briefly, colonic tubular adenocarcinomas (ACs) were homogenized in 100 mM Tris-HCl buffer. […] Reaction mixture incubated for 20 min and ^14C-PGE2, 5-^14C-HETE and other 14-C metabolites were extracted and analyzed by Radio-HPLC according to the previously published work.
# [7] = biological target: 5-LOX (Rattus norvegicus, UniProt P12527); conditions: ex vivo colon tumor homogenate
# Sequence of 5-LOX (P12527 whole entry): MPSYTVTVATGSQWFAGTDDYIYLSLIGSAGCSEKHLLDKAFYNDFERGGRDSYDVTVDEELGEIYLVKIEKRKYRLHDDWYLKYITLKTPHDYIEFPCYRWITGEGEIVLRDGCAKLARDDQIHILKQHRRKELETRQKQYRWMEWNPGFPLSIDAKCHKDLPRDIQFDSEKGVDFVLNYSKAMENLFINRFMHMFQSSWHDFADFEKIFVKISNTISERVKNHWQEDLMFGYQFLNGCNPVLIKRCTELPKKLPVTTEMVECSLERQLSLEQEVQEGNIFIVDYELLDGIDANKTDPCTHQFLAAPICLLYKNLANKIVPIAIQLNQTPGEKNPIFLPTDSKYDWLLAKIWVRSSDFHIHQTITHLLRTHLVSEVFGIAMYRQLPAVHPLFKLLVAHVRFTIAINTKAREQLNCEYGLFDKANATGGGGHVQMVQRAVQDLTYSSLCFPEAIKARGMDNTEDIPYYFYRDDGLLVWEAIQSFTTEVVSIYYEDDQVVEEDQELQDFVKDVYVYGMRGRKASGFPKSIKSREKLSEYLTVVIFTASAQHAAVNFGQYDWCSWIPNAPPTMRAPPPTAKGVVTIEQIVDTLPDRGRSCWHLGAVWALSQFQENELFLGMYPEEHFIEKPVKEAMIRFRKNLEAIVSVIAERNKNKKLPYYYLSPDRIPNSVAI
# Protocol: as §1
# [8] = biological target: mPGES-1 (Rattus norvegicus, UniProt Q9JHF3); conditions: ex vivo colon tumor homogenate
# Sequence of mPGES-1 (Q9JHF3 whole entry): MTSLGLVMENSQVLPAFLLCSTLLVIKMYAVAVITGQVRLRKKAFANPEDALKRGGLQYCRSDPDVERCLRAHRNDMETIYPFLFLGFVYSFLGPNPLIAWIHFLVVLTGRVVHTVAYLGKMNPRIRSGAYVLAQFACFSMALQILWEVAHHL
# Protocol: as §1
# [9] = 350 and 700 ppm, female Apc Min/+ mice
# [10] = 350 ppm in diet, female Apc Min/+ mice
# [11] = 350 ppm in diet, male Apc Min/+ mice
# 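For Major Organ Toxicity in this document: gross examination of all organs at necropsy, with liver enzyme profile and GI ulceration assessed in collected tissues and blood.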
# 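For Ulceration (Grade) Colon in this document: gross examination of all organs at necropsy, with liver enzyme profile and GI ulceration assessed in collected tissues and blood.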
# 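For Ulceration (Grade) Small Intestine in this document: gross examination of all organs at necropsy, with liver enzyme profile and GI ulceration assessed in collected tissues and blood.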
# 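For Ulceration (Grade) Stomach in this document: gross examination of all organs at necropsy, with liver enzyme profile and GI ulceration assessed in collected tissues and blood.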
smiles,measurement,setting,value
"CC1(C)Cc2c(-c3ccccc3)c(-c3ccc(Cl)cc3)c(CC(=O)NCC(=O)O)n2C1 [LFA-9, licofelone-glycine]",colonic tumors per mouse,[1]; [9],0.1 tumors per mouse
same,reduction in the colonic tumors,[1]; [9],90%
same,colon tumor inhibition,[1]; [10],90%
same,fewer polyps with sizes greater than 2 mm,[1]; [10],81.6%
same,colon tumor inhibition,[1]; [11],60%
same,fewer polyps with sizes greater than 2 mm,[1]; [11],76.8%
same,"total intestinal tumors (polyps), means±SEM",[1]; [11],31.6±5.99
same,suppression of polyps of greater than 2 mm size,"[1]; 700 ppm in diet, both genders, Apc Min/+ mice",more than 81%
same,inhibition of colon tumors,"[1]; 700 ppm in diet, both male and female Apc Min/+ mice",91%
same,"total intestinal tumors (polyps), means±SEM","[1]; 700 ppm in diet, female Apc Min/+ mice",15.5±1.79
same,"total intestinal tumors (polyps), means±SEM","[1]; 700 ppm in diet, male Apc Min/+ mice",24.3±3.7
same,body weights of Apc Min/+ mice versus control diet,"[1]; LFA-9 in diet (350, 700 ppm)",higher weight gains
same,intestinal tumor inhibition,[1]; female Apc Min/+ mice,73.8%
same,intestinal tumor inhibition,[1]; male Apc Min/+ mice,approximately 56%
same,"gross changes attributable to toxicity in liver, kidneys or lungs; body weight gain",[1]; wild-type mice,did not produce any gross changes attributable to toxicity
same,stability in diet,[2],> 96%
same,AOM-DSS-Induced Inflammation Score,[3]; 100 ppm in diet,1
same,AOM-DSS-Induced Inflammation Score,[3]; 200 ppm in diet,0 to 1
same,AOM-DSS-Induced Inflammation Score,[3]; 400 ppm in diet,0
same,AOM-DSS-Induced Inflammation Score,[3]; 600 ppm in diet,0
same,AOM-DSS-Induced Inflammation Score,[3]; 800 ppm in diet,0
same,infiltration of inflammatory cells in colonic mucosa and submucosa,"[3]; >100 ppm in diet, AOM-DSS rats",significantly suppressed infiltration of inflammatory cells
same,inflammation,"[3]; >100 ppm in diet, AOM/DSS rats",completely blocked inflammation
same,inflammation score,"[3]; all rats fed LFA-9, lowest to highest doses (100-800 ppm)",Score 1 (lowest to highest doses) or no inflammation
same,toxicity in male F344 rats,[3]; up to 800 ppm in diet,did not induce significant toxicity
same,Major Organ Toxicity,"[4]; 100 ppm in diet, 6 weeks",None
same,Ulceration (Grade) Colon,"[4]; 100 ppm in diet, 6 weeks",Grade 0
same,Ulceration (Grade) Small Intestine,"[4]; 100 ppm in diet, 6 weeks",Grade 0
same,Ulceration (Grade) Stomach,"[4]; 100 ppm in diet, 6 weeks",Grade 0
same,Liver enzymes ALKP,"[4]; 100 ppm in diet, 6 weeks",178 ± 32 units/L
same,Liver enzymes ALT,"[4]; 100 ppm in diet, 6 weeks",82 ± 15 units/L
same,Liver enzymes AST,"[4]; 100 ppm in diet, 6 weeks",75 ± 8.5 units/L
same,Liver enzymes LDH,"[4]; 100 ppm in diet, 6 weeks",408 ± 28 units/L
same,Major Organ Toxicity,"[4]; 200 ppm in diet, 6 weeks",None
same,Ulceration (Grade) Colon,"[4]; 200 ppm in diet, 6 weeks",Grade 0
same,Ulceration (Grade) Small Intestine,"[4]; 200 ppm in diet, 6 weeks",Grade 0
same,Ulceration (Grade) Stomach,"[4]; 200 ppm in diet, 6 weeks",Grade 0
same,Liver enzymes ALKP,"[4]; 200 ppm in diet, 6 weeks",184 ± 30 units/L
same,Liver enzymes ALT,"[4]; 200 ppm in diet, 6 weeks",98 ± 13 units/L
same,Liver enzymes AST,"[4]; 200 ppm in diet, 6 weeks",83 ± 10 units/L
same,Liver enzymes LDH,"[4]; 200 ppm in diet, 6 weeks",394 ± 19 units/L
same,Major Organ Toxicity,"[4]; 400 ppm in diet, 6 weeks",None
same,Ulceration (Grade) Colon,"[4]; 400 ppm in diet, 6 weeks",Grade 0
same,Ulceration (Grade) Small Intestine,"[4]; 400 ppm in diet, 6 weeks",Grade 0
same,Ulceration (Grade) Stomach,"[4]; 400 ppm in diet, 6 weeks",Grade 0
same,Liver enzymes ALKP,"[4]; 400 ppm in diet, 6 weeks",187 ± 38 units/L
same,Liver enzymes ALT,"[4]; 400 ppm in diet, 6 weeks",93 ± 15 units/L
same,Liver enzymes AST,"[4]; 400 ppm in diet, 6 weeks",68 ± 7.5 units/L
same,Liver enzymes LDH,"[4]; 400 ppm in diet, 6 weeks",379 ± 29 units/L
same,Major Organ Toxicity,"[4]; 800 ppm in diet, 6 weeks",None
same,Ulceration (Grade) Colon,"[4]; 800 ppm in diet, 6 weeks",Grade 0
same,Ulceration (Grade) Small Intestine,"[4]; 800 ppm in diet, 6 weeks",Grade 0
same,Ulceration (Grade) Stomach,"[4]; 800 ppm in diet, 6 weeks",Grade 0
same,Liver enzymes ALKP,"[4]; 800 ppm in diet, 6 weeks",181 ± 27 units/L
same,Liver enzymes ALT,"[4]; 800 ppm in diet, 6 weeks",104 ± 13 units/L
same,Liver enzymes AST,"[4]; 800 ppm in diet, 6 weeks",82 ± 11 units/L
same,Liver enzymes LDH,"[4]; 800 ppm in diet, 6 weeks",422 ± 43 units/L
same,body weight loss or gross histological symptoms of toxicity,"[4]; 800 ppm in diet, C57BL/6 mice",do not induce any body weight loss or gross histological symptoms of toxicity
same,Major Organ Toxicity,"[4]; 1,600 ppm in diet, 6 weeks",Liver
same,Ulceration (Grade) Colon,"[4]; 1,600 ppm in diet, 6 weeks",Grade 1
same,Ulceration (Grade) Small Intestine,"[4]; 1,600 ppm in diet, 6 weeks",Grade 0
same,Ulceration (Grade) Stomach,"[4]; 1,600 ppm in diet, 6 weeks",Grade 1
same,Liver enzymes ALKP,"[4]; 1,600 ppm in diet, 6 weeks",288 ± 24 units/L
same,Liver enzymes ALT,"[4]; 1,600 ppm in diet, 6 weeks",158 ± 18 units/L
same,Liver enzymes AST,"[4]; 1,600 ppm in diet, 6 weeks",132 ± 17 units/L
same,Liver enzymes LDH,"[4]; 1,600 ppm in diet, 6 weeks",589 ± 42 units/L
same,animals died at the end of six-week exposure,"[4]; 1,600 ppm in diet, mice",3 animals
same,colonic ulceration at microscopic level,"[4]; 1,600 ppm in diet, mice",Grade 1 to 2
same,liver toxicity by gross pathology,"[4]; 1,600 ppm in diet, mice",modest liver toxicity
same,stomach ulceration at microscopic level,"[4]; 1,600 ppm in diet, mice",Grades 2 to 3
same,body weight loss as compared to control diet fed mice body weight gain,"[4]; 1,600 ppm in diet, six weeks, mice",~30%
same,ulceration,[4]; doses up to 800 ppm in diet,no ulceration
same,toxicity and body weight gain,"[4]; up to 800 ppm in diet, 6 weeks",does not induce any toxicity; also recorded: did not exhibit toxicity
same,4 or >multi-crypt AC/colon (Mean ± SEM),[5]; 200 ppm in diet,23.5 ± 2.1
same,% Inhibition (4 or >multi-crypt AC/colon),[5]; 200 ppm in diet,30%
same,% Inhibition (total ACF/colon),[5]; 200 ppm in diet,29.5%
same,Total ACF/Colon (Mean ± SEM),[5]; 200 ppm in diet,110 ± 6.1
same,4 or >multi-crypt AC/colon (Mean ± SEM),[5]; 400 ppm in diet,18.3 ± 2.0
same,% Inhibition (4 or >multi-crypt AC/colon),[5]; 400 ppm in diet,45.4%
same,% Inhibition (total ACF/colon),[5]; 400 ppm in diet,44.2%
same,Total ACF/Colon (Mean ± SEM),[5]; 400 ppm in diet,84 ± 5.3
same,4 or >multi-crypt AC/colon (Mean ± SEM),[5]; 600 ppm in diet,13.5 ± 1.7
same,% Inhibition (4 or >multi-crypt AC/colon),[5]; 600 ppm in diet,61.2%
same,% Inhibition (total ACF/colon),[5]; 600 ppm in diet,60.5%
same,Total ACF/Colon (Mean ± SEM),[5]; 600 ppm in diet,62 ± 4.8
same,"% of Inhibition from control, COX-1/2 (14C-PGs and TXs from 14C-AA)",[6]; 2.5 μM,4%
same,"% of Inhibition from control, COX-1/2 (14C-PGs and TXs from 14C-AA)",[6]; 5.0 μM,9%
same,"% of Inhibition from control, COX-1/2 (14C-PGs and TXs from 14C-AA)",[6]; 10 μM,31%
same,"% of Inhibition from control, COX-1/2 (14C-PGs and TXs from 14C-AA)",[6]; 20 μM,58%
same,"% of Inhibition from control, 5LOX (5-14C-HETE from 14C-AA)",[7]; 2.5 μM,27%
same,"% of Inhibition from control, 5LOX (5-14C-HETE from 14C-AA)",[7]; 5.0 μM,49%
same,"% of Inhibition from control, 5LOX (5-14C-HETE from 14C-AA)",[7]; 7.5 μM,68%
same,"% of Inhibition from control, 5LOX (5-14C-HETE from 14C-AA)",[7]; 10 μM,89%
same,"% of Inhibition from control, 5LOX (5-14C-HETE from 14C-AA)",[7]; 20 μM,97%
same,"% of Inhibition from control, mPGES-1 (14C-PGE2 from 14C-PGH2)",[8]; 2.5 μM,18%
same,"% of Inhibition from control, mPGES-1 (14C-PGE2 from 14C-PGH2)",[8]; 5.0 μM,32%
same,"% of Inhibition from control, mPGES-1 (14C-PGE2 from 14C-PGH2)",[8]; 7.5 μM,57%
same,"% of Inhibition from control, mPGES-1 (14C-PGE2 from 14C-PGH2)",[8]; 10 μM,78%
same,"% of Inhibition from control, mPGES-1 (14C-PGE2 from 14C-PGH2)",[8]; 20 μM,83%
